Values quoted from earlier work as cited in patent US20080175827A1, “PHOSPHOLIPASE C ZETA MEDIATED OOCYTE ACTIVATION, COMPOSITIONS FOR USE THEREIN, AND ASSAYS FOR DETECTING AND IDENTIFYING AGENTS FOR TREATING MALE INFERTILITY” (Michigan State University, priority 2006, published 2008).

Tests used:
bovine eggs = settings: bovine oocytes; Malcuit and Fissore 2007
IP3R = settings: mice; Jellerette et al. 2000

In the case of `[Cl-].[Cl-].[Sr+2]` [strontium chloride], the “[Ca2+]i oscillations” value (bovine eggs) is given as “does not induces [Ca^2+]i oscillations” and the IP3R downregulation (IP3R) is given as “does not downregulate IP3R”.
